Results on one compound are retold here after PMC6600523, “Interference with Amyloid-β Nucleation by Transient Ligand Interaction” (Molecules, 2019).

The target in data set [1] is T1, Aβ42 (Homo sapiens, UniProt P05067).
T1 construct: purchased Bachem H-1368.1000
Nature of the data set: Sedimentation velocity AUC with fluorescence detection, Aβ42 and D3 mixtures. The format is binding. Conditions: 0.33 μM FITC-Aβ42 with various D3 concentrations; 55 mM Tris-HCl, 50 mM NaCl pH 7.4, 0.01% Tw20; D3 concentration-dependent. Here is the method:
All measurements were performed using an XL-A analytical ultracentrifuge (Beckman coulter, Brea, CA, USA). […] All samples were prepared in 20 mM sodium phosphate, 50 mM NaCl (pH 7.4) containing 0.0004% PEI (w/v). Samples were then loaded into 3-mm double-sector titanium cells (Nanolytics, Potsdam, Germany), with each sector containing a 100 μL sample. The detection system uses an excitation laser at 488 nm and an emission cut-off filter at 505 nm to collect fluorescence signals. The amplification factor was adjusted to the same value for all samples for comparability. […] Data was acquired at 20 nm radial resolution. After thorough thermal equilibration the centrifugation was carried out at 60,000 rpm (289,000× g) at 20 °C for 15 h. Carrier proteins, such as albumin and kappa casein, are usually recommended to minimize unspecific surface adsorption for fluorescence-based AUC [56]. All sedimentation profiles were subjected to the software package SEDFIT (version 15.01b) for data evaluation. The data was analyzed with the continuous distribution c(s) Lamm equation model to obtain the sedimentation coefficient distributions. Fitting parameters (Table S1) including the buffer density and viscosity were determined using Sednterp (version 20130813BETA). […] Final graphs were generated using GUSSI (version 1.2.1) and sedimentation coefficients were standardized to s-values in pure water at 20 °C (s20,w).

Data set [2] has as its target T1, Aβ42. Nature of the data set: ThT assay, fibrillation kinetics of Aβ42. Type of data set: biochemical. Conditions: 50 mM NaCl pH 7.4, 20 °C, AmyloFit fit, triplicate. As for the experimental part:
ThT was added at a final concentration of 5 μM in all samples. The final volume of each sample was 200 μL. Samples were prepared on ice and were pipetted into a 96-well plate afterwards. The plate was sealed with a microplate sealing film. All measurements were conducted at 20 °C with a microplate reader (Infinite M200, Tecan, Männedorf, Switzerland). The fluorescence was recorded at an excitation wavelength (λex) of 445 nm and an emission wavelength (λem) of 485 nm every 30 min for 120 h. […] All samples were prepared in triplicate.
The ThT data was then subjected to the online server AmyloFit with a customized sigmoidal Equation (1) to determine the lag time tlag , and the half completion time of the aggregation process t1/2 , according to previous studies. (1) It=k0t+A/1+exp−kt−t1/2, where k0 represents the slope of the baseline, A is the amplitude, k denotes the apparent elongation rate constant. The lag time tlag can be derived from the intercept between the time axis and the tangent with slope k from the midpoint of the fitted sigmoidal curve, which is given by the following Equation (2):(2) tlag=t1/2−2/k

Data set [3] concerns the target T1, Aβ42. Nature of the data set: Seeding experiment, ThT kinetics of seeded Aβ42. The following applies: 20 mM sodium phosphate, 50 mM NaCl pH 7.4, 20 °C. The format is biochemical. Here is the method:
The sample was then incubated quiescently at room temperature for 120 h. […] Samples were pipetted to a 96-well plate, with each well containing 200 μL samples. The plate was then covered with a sealing film. ThT fluorescence of all samples was recorded using the same device and parameters, as described above for ThT assays. All samples were prepared in duplicate. Final data was normalized and averaged based on the repetitions.

In data set [4] the target is T1, Aβ42. Nature of the data set: Circular dichroism spectroscopy, secondary structure transition of Aβ42. The format is biochemical. Conditions: 20 mM sodium phosphate, 50 mM NaF pH 7.4, 20 °C. As for the experimental part: NaF was used to substitute NaCl in this measurement to maintain the ionic strength of the buffer, so as to avoid the strong absorbance of NaCl in the far-UV area. […] All samples were prepared on ice before being transferred to 1 mm path length quartz cuvettes. The final volume of each sample was 200 μL. Circular dichroism (CD) spectra were recorded from 260 nm to 190 nm using a J-815 spectropolarimeter (Jasco, Tokyo, Japan). All measurements were carried out with a step size of 0.5 nm and a bandwidth of 2 nm. The scanning speed was set to 100 nm/min and 10 scans were accumulated for each sample. […] Samples were maintained at 20 °C within the measurement duration of 120 h, and were prepared in triplicate. CD spectra for all samples were deconvoluted using the online server Dichroweb by applying the CDSSTR algorithm and reference dataset Set 7 [87].
A general note: CD spectra are sensitive to the conformation of chiral molecules.

Data set [5] concerns the target T1, Aβ42. Nature of the data set: Atomic force microscopy, morphologies of Aβ42 samples. Type of data set: biochemical. The following applies: 20 mM sodium phosphate, 50 mM NaCl pH 7.4, 20 °C, AFM in air, AC mode. As for the experimental part:
At 48 h and 120 h, 10 μL samples were pipetted onto freshly cleaved mica, and were further incubated at room temperature for 30 min. Mica with deposited samples were rinsed with ultrapure water for three times and finally dried with nitrogen gas. Atomic force microscopy (AFM) imaging was carried out in air at room temperature, using silicon cantilevers (OMCL AC160 TS, Olympus, Tokyo, Japan) and a JPK NanoWizard 3 microscope (JPK Instruments AG, Berlin, Germany) in AC mode. The nominal tip diameter of the cantilever was 7 nm. AFM height images at 10 × 10 μm^2 and 1 × 1 μm^2 (both with a resolution of 1024 × 1024 pixel) for all samples were taken with a line rate of 1 Hz and respective scanning speeds of 22.55 μm/s and 2.48 μm/s. Data was processed with JPK NanoWizard SPM data processing software.

Data set [6] has as its target T1, Aβ42. Nature of the data set: Turbidity assay of Aβ42 samples with D3. The following applies: 40 μM Aβ42 with 4, 20, 40 and 80 μM D3; 20 mM sodium phosphate, 50 mM NaCl pH 7.4; ambient temperature; directly and after 2 h; UV-Vis. The format is physicochemical. As for the experimental part: The turbidity assay was carried out by measuring the spectra of all samples from 450 nm to 210 nm in a 1 cm quartz cuvette using a V-650 UV-Vis spectrophotometer (Jasco, Tokyo, Japan). The measurements were performed directly after preparing all samples, and repeated after 2 h of incubation at ambient temperature.

Where [7] appears, read: 20 μM Aβ42 with (label D3) or without (label Aβ42) 2 μM D3, 20 mM sodium phosphate, 5 μM ThT.
[8] abbreviates: 20 μM Aβ42 with (label D3, 10:1) or without (label Aβ42) 2 μM D3, 55 mM Tris-HCl.

Where a SMILES comes first, the peptide text is derived from it. [ ]: non-standard residue; d: D form.

T1 sequence (P05067 672-713 limits assumed): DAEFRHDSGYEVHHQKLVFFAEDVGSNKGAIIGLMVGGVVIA

The compound `CC(C)C[C@@H](NC(=O)[C@@H](CCCNC(=N)N)NC(=O)[C@H](NC(=O)[C@@H](CCCNC(=N)N)NC(=O)[C@H]1CCCN1C(=O)[C@H](N)CCCNC(=N)N)[C@H](C)O)C(=O)N[C@H](Cc1c[nH]cn1)C(=O)N[C@@H](C(=O)N[C@H](Cc1c[nH]cn1)C(=O)N[C@H](CCCNC(=N)N)C(=O)N[C@H](CC(N)=O)C(=O)N[C@H](CCCNC(=N)N)C(N)=O)[C@H](C)O` [D3] (H-[dR][dP][dR][dT][dR][dL][dH][dT][dH][dR][dN][dR]-NH2) had an MST KD compared with SPR KD of 10 fold. In addition, the “s20,w of new species formed on incubating D3 with FITC-Aβ42” value at Aβ42 [1] stood at 1.54 ± 0.11 S. Moreover, on Aβ42 [2] (setting [7]), the “Half completion time t1/2 of fibrillation kinetics” value was 79.3 ± 2.3 h, the “Lag time tlag of fibrillation kinetics” value was 67.6 ± 3.8 h and the “Slope k of fibrillation kinetics” value is reported as 0.18 ± 0.07. For the same compound, on Aβ42 [2] (setting [8]), the “Half completion time t1/2 of fibrillation kinetics, Tris-HCl buffer” value came out at 74.5 ± 2.8 h; the “Lag time tlag of fibrillation kinetics, Tris-HCl buffer” value was found to be 59.3 ± 2.2 h; the “Slope k of fibrillation kinetics, Tris-HCl buffer” value stood at 0.14 ± 0.04. Besides, at Aβ42 [3] (10 μM Aβ42, 1% seeds, 1 μM D3, compared with Aβ42 without D3), the “Effect on ThT kinetics of Aβ42 with 1% seeds” value is “longer lag phase”. In addition, the “Effect on ThT kinetics of Aβ42 with 5% seeds” value at Aβ42 [3] (10 μM Aβ42, 5% seeds, 1 μM D3 (0.1-fold), slopes compared with Aβ42 with 5% seeds only) is reported as “retardation of the elongation process”. Besides, the “Effect of delayed D3 addition on the structural transformation of Aβ42” value at Aβ42 [4] (4 μM D3 added into 40 μM Aβ42 after 33 h preincubation) is recorded as “visibly delayed the structural transformation of Aβ42”. The “Ellipticity at 217 nm of the Aβ42 sample with D3 relative to Aβ42 alone” value on Aβ42 [4] (40 μM Aβ42 with 4 μM D3, at 120 h, triplicate) is listed as “about 72%”. Besides, on Aβ42 [5] (40 μM Aβ42 with 4 μM D3 (0.1 equimolar), 48 h), the “Morphology of Aβ42 incubated with D3, 48 h” value is recorded as “no fibrils”. The “Morphology of Aβ42 incubated with D3, 120 h” value on Aβ42 [5] (40 μM Aβ42 with 4 μM D3, 120 h) is recorded as “did not stop the fibril formation”. In addition, the “Turbidity (absorbance at 405 nm) of Aβ42 samples on addition of D3” value at Aβ42 [6] is “promotes the rapid formation of co-precipitates in a concentration-dependent manner”.
